# Source: patent publication US20120115151A1, “METHOD FOR TESTING A SUBJECT THOUGHT TO BE PREDISPOSED TO HAVING METASTATIC CANCER USING DELTA133P53BETA” (CENTRE NATIONAL DE LA RECHERCHE SCIENTIFIQUE (CNRS), priority 2009, published 2012)
# Tested on: hct116 cells transfected with GFP-tagged Δ133p53 isoforms
# Test: Matrigel Transwell invasion assay in the presence of the ROCK inhibitor
# Type: cell-based
# Details: Y27632 at 10 μM; cells expressing Δ133p53 isoforms invading through Matrigel
# Protocol: Y27632 was purchased from calbiochem and was used at 10 μM in all experiments. The quantification of cell invasion was carried out in Transwell cell culture chambers containing fluorescence-blocking polycarbonate porous membrane inserts (Fluoroblock; #351152; BD Biosciences; pore size 8 μm). 100 μl of 2 mg/mL Matrigel with reduced growth factors (a commercially prepared reconstituted BM from Englebreth-Holm-Swarm tumours, #354230; BD Biosciences) were prepared in a Transwell. Cells were transfected and treated or not with Y27632 as monolayers before trypsinization and plating (10·10^4) in 2% FCS containing media on top of a thick layer (around 500 μm) of Matrigel contained within the upper chamber of a Transwell. Controls were left untreated. The upper and lower chambers were then filled with respectively 2% FCS containing media and media with 10% FCS, thus establishing a soluble gradient of chemo-attractant that permits cell invasion throughout the Matrigel. Cells were allowed to invade at 37° C., 5% CO2 through the gel before fixing for 15 min in 3.7% formaldehyde. Cells that had invaded through the Matrigel were detected on the lower side of the filter by GFP fluorescence and counted for cell number. All the surface of the filter is counted and each assay was performed twice in triplicate for each condition. […]
compound,measurement,value
C[C@@H](N)[C@H]1CC[C@H](C(=O)Nc2ccncc2)CC1 [Y27632],invasiveness of transfected cells,highly reduced
